# Patent publication US20240165202A1, “USES OF FGF21 POLYPEPTIDES AND FUSION POLYPEPTIDES THEREOF” (SUNSHINE LAKE PHARMA CO., LTD., priority 2021, published 2024)
# What was measured:
# [1] = system: ob/ob mice nonalcoholic steatohepatitis (NASH) model; assay: ob/ob mice high-fat diet NASH model, 6 weeks dosing: blood glucose and body weight; type: in vivo; details: 10 nmol/kg
# Experimental: (§1) 70 Male ob/ob mice (Changzhou Cavens Laboratory Animal Co., Ltd.) weighed about 43-45 g were fed with high-fat diet (D12492, Research Diets, Inc., New Brunswick, NJ) for 9 weeks to establish a nonalcoholic steatohepatitis (NASH) model. 3 Weeks after HFD feeding, the therapeutic efficacy of the compounds dual target fusion protein 1 #, Fc-FGF21 (single target 1 #) and Dulaglutide were tested after 6 weeks of dosing. The experimental animals were randomly divided into 5 groups according to body weight and blood glucose after […] of HFD feeding: the model group (group-1, n=10), the dual target fusion protein 1 #-3 nmol/kg group (group-2, n=10); the dual target fusion protein 1 #-10 nmol/kg group (group-3, […]); Fc-FGF21-10 nmol/kg group (group-4, n=10); Dulaglutide-10 nmol/kg (group-5, n=10). The model group was administrated PBS. The groups of dual target fusion protein 1 #, Fc-FGF21, and Dulaglutide were administrated twice a week for a total of 6 weeks. Feed intake, water intake and body weight of animals were recorded every two days after the start of HFD feeding until the end of the experiment. Blood glucose was measured at 0, 2, 7, 24, 48, 72 hours after the first administration, and then twice a week. At the end of the experiment, the animals were fasted to detect fasting blood glucose.
# [2] = system: ob/ob mice nonalcoholic steatohepatitis (NASH) model; assay: ob/ob mice high-fat diet NASH model, 6 weeks dosing: liver pathological scores; type: in vivo; details: 10 nmol/kg twice a week, Mean ± SEM, n = 10
# Experimental: as §1
# [3] = system: ob/ob mice nonalcoholic steatohepatitis (NASH) model; assay: ob/ob mice high-fat diet NASH model, 6 weeks dosing: serum lipids, liver weight, liver function, liver lipids; type: in vivo; details: 10 nmol/kg
# Experimental: as §1
# [4] = system: high-fat-induced C57BL/6 mice model; assay: High-fat diet induced C57BL/6 mice, 16 weeks dosing: random blood glucose, IPGTT, fasting glucose, insulin, HOMA-IR, body weight, fat mass; type: in vivo
# From the text: (§2) After 16 weeks of high-fat diet feeding (D12492, Research Diets, Inc., New Brunswick, NJ), C57BL/6 mice (purchased from Hunan SJA Laboratory Animal Co., Ltd.) were randomly divided into vehicle group or treatment group according to the measured blood glucose and body weight. The study included control group with normal diet, high-fat diet Model group was administrated with vehicle PBS, subcutaneous injection of semaglutide once a day (QD) 10 nmol/kg, dual target 1 # was administrated twice weekly (BIW), the low dose was 3 nmol/kg and the high dose was 10 nmol/kg, 7 animals in each group. The drug groups were administrated the corresponding drugs according to the administration frequency for 16 consecutive weeks, and the high-fat diet was continued during the administration period until the end of the experiment. The random blood glucose, body weight and intraperitoneal glucose tolerance IPGTT of mice were monitored.
# (§3) At the end of the experiment of Example 4, that is, the 16th week of administration, the animals were fasted overnight and could drink water. After the animals were weighed, the orbital blood was collected, serum was separated, and serum lipids (TG (triglyceride), TC (total cholesterol)) and liver function indexes ALT (alanine aminotransferase)/AST (aspartate aminotransferase) were detected by an automatic biochemical analyzer. Serum insulin levels were detected by Elisa kit, and the HOMA-IR index was calculated according to the formula, that is, HOMA-IR=fasting blood glucose (blood glucose value at 0 time of IPGTT in the 16th week)×fasting insulin/22.5. After the blood was collected, the liver, subcutaneous fat, epididymal fat and perirenal fat were dissected and weighed. About 40-60 mg of liver tissue was weighed and put into a homogenization tube, 1 mL of absolute ethanol was added for homogenization, then the homogenate was taken and centrifuged at 4° C., 3,500 rpm for 10 min. The supernatant was taken, and the concentrations of TG and TC in the supernatant were detected by an automatic biochemical analyzer, and then the contents of TG and TC were calculated according to the weighed liver weight
# [5] = system: high-fat diet induced C57BL/6 mice model; assay: High-fat diet induced C57BL/6 mice: liver histopathology NAS and fibrosis scores; type: in vivo; details: 10 nmol/kg (semaglutide QD, dual target 1# BIW), 16 weeks, Mean ± SD, n = 6-7
# From the text: as §2
# The left lobe of the liver obtained by dissection in Example 5 was immersed in a 50 mL centrifuge tube filled with formalin to prepare liver disease sections, and the formalin liver tissue was subjected to wax block making, sectioning, HE staining, and HE staining slices were mailed to Suzhou KCl Co., Ltd. for NAS scoring; fibrosis was assessed by Sirius red staining, and the scores were scored according to the severity of fibrosis, with a score of 1-3. Liver histopathological changes were observed under light microscope and NAS/fibrosis scores were performed.
# [6] = system: high-fat-induced C57BL/6 mice model; assay: High-fat diet induced C57BL/6 mice: serum lipids, ALT/AST, liver weight, liver homogenate lipids; type: in vivo; details: 16th week of administration
# From the text: as §2, §3
# [7] = mouse models; cited from earlier work
# [8] = 10 nmol/kg (semaglutide QD, dual target 1# BIW), 16 weeks, Mean ± SD, n = 6-7
molecule,measurement,setting,value
Dulaglutide,weight growth rate compared with the model group,[1]; D1 to D43,decreased significantly
same,average weight loss rate,"[1]; D1 to D43, p<0.01 or 0.001",8.9%
same,blood glucose level versus model group,"[1]; after 5 days, P>0.05",less different from that of the model group
same,Inflammatory infiltration Scores,[2],0.57 ± 0.13
same,Liver ballooning Scores,[2],0.43 ± 0.26
same,NAS scores,[2],3.80 ± 0.41
same,Steatosis Scores,[2],2.80 ± 0.07
same,level of serum TG compared with the model group,[3],significantly decreased
same,serum TC level compared with the model group,[3],not significantly decreased
Semaglutide,Epididymal fat,[4]; [8],1.0 ± 0.5 g
same,Perirenal fat,[4]; [8],0.6 ± 0.6 g
same,Subcutaneous fat,[4]; [8],0.9 ± 1.0 g
same,Total Fat,[4]; [8],2.6 ± 2.1 g
same,weight loss,"[4]; 10 nmol/kg, 16 weeks",24.3%
same,"blood glucose AUCO-72h after the first administration, compared with the Model group","[4]; 10 nmol/kg, p<0.05",significantly reduce
same,body weight growth rate compared with the Model group,"[4]; 16 weeks, P<0.001",significantly reduce
same,insulin level compared with Model,"[4]; end of experiment, serum, P<0.001",significantly reduce
same,HOMA-IR index compared with Model,"[4]; end of experiment, P<0.001",significantly reduce
same,"IPGTT: blood glucose after glucose administration and area under the blood glucose curve, compared with Model","[4]; weeks 2, 8 and 16, 30-90 min or 15-90 min after glucose",significantly reduce
same,NAS total score,[5],0.0 ± 0.0
same,Fibrosis Manual Score,"[5]; Sirius red, score 1-3",1.5 ± 0.5
same,Balloon degeneration,[5]; score,0.0 ± 0.0
same,Inflammation,[5]; score,0.0 ± 0.0
same,Liver steatosis,[5]; score,0.0 ± 0.0
same,TG in liver homogenate compared with the Model,[6],significantly reduce
same,liver absolute weight compared with the Model,[6],significantly reduce
same,serum ALT level compared with the Model,[6],significantly reduce
same,serum AST level compared with the Model,[6],significantly reduce
same,serum TC compared with Model,[6],significantly reduce
same,serum TG compared with Model,[6],significantly reduce
"FGF21: member of the FGF family (fibroblast growth factors); native FGF21 with short half-life (protein, UniProt Q9NSA1 29-209, looked up) Fibroblast growth factor 21: HPIPDSSPLLQFGGQVRQRYLYTDDAQQTEAHLEIREDGTVGGAADQSPESLLQLKALKPGVIQILGVKTSRFLCQRPDGALYGSLHFDPEACSFRELLLEDGYNVYQSEAHGLPLHLPGNKSPHRDPAPRGPARFLPLPGLPPALPEPPGILAPQPPDVGSSDPLSMVGPSQGRSPSYAS",half-life,[7],about 1 h
